assay: Henry solubility constant Hcp at 298.15 K (mol/(m3 Pa)); settings: reference: Schwardt et al. (2021)

Row | SMILES | Henry solubility constant Hcp
1 | Cc1ccc(C)cc1 [1,4-dimethylbenzene] | 0.001
2 | C=C(Cl)Cl [1,1-dichloroethene] | 0.0004
3 | ClC=C(Cl)Cl [trichloroethene] | 0.001
4 | ClCC(Cl)(Cl)Cl [1,1,1,2-tetrachloroethane] | 0.0045
5 | ClC(Cl)=C(Cl)Cl [tetrachloroethene] | 0.00058
6 | C=CCl [chloroethene] | 0.00039
7 | CCc1ccccc1 [ethylbenzene] | 0.0013
8 | ClCC(Cl)Cl [1,1,2-trichloroethane] | 0.0073
9 | Clc1ccccc1 [chlorobenzene] | 0.002

From Sander's compilation of Henry's law constants (doi:10.1016/j.chemosphere.2021.129858)
